Converted amounts (≈) assume the structure as drawn. Where two headings read alike, the source gives them in different places.
Experiments:
normal human fibroblasts = assay: In vitro growth inhibition assay (crystal violet) with oleic acid supplement; type: cell-based; details: for effect on normal human fibroblasts: standard in vitro growth inhibition assays
Description: (§1) In vitro growth inhibition assays for OA-519 inhibition were performed using ZR-75-1 cells or normal human fibroblasts which were grown to confluence, and then 25,000 cells were plated in 1:1 conditioned:fresh medium (RPMI with 10% fetal calf serum) supplemented at a physiologic level to 0.5 millimolar oleic acid bound to previously delipidized bovine serum albumin. Cells were allowed to attach and grow overnight. At time 0, drugs diluted in RPMI medium with 10% fetal calf serum were added to achieve the following concentrations: 50 µg/ml to 0.01 µg/ml with serial two-fold dilutions including no drug and empty well controls. Each concentration was performed in quadruplicate and time points were taken at 4, 8, 24, and 48 h. After drug treatment, cells were stained with crystal violet, solubilized in SDS, and read on a Molecular Diagnostics automated plate reader at 570 nm.

ZR-75-1 cells [1] = assay: as above; type: cell-based, human; details: for effect on carcinoma cells: standard in vitro growth inhibition assays
Description: as §1

[2] = test system: SK-BR-3 human mammary carcinoma cells; assay: Crystal violet growth inhibition assay, 48 hour exposure; type: cell-based
Description: (§2) This experiment was performed using the crystal violet growth inhibition assay. Cells with varying degrees of FAS activity were plated at 5000 cells per well in 96 well plates in RPMI-1640 with 10% heat-inactivated fetal bovine serum. After 72 hours of incubation in a humidified 95% air: 5% CO2 atmosphere, varying concentrations (0-500 µg/ml) of TOFA (5-tetradecyloxyl)-2-furoic acid were added and cultures were re-incubated for 48 hours. Plates were then removed and stained with crystal violet as described. Absorbance readings were averaged for each concentration of agent (n=4), control (n=8), and background (n=8). Background readings were subtracted. The concentration of TOFA is plotted against growth (as % of control growth) in Figure 15.
In these experiments, cells were plated at 5000 cells per well in a 96-well microtiter plate and maintained in RPMI-1640 with 10% heat-inactivated fetal bovine serum for 72 hours. Next, the compounds indicated in Table 4 were added, and cells were incubated for an additional 48 hours. Growth inhibition was then measured using the crystal violet method.

Vero = details: cited from earlier work
Hela cells = details: cited from earlier work
[3] = target: rat liver acyl-CoA synthetase; details: read-out: concentration causing 50% inhibition; cited from earlier work
ZR-75-1 cells [4] = assay: Triacsin-C and cerulenin synergy, crystal violet growth inhibition; type: cell-based; details: Homo sapiens, ZR-75-1, 24 h
Description: 96 well microtiter plates were plated with ZR-75-1 cells at 25,000 cells/well and incubated overnight (18 h) at 37° C in 5% CO2. Triacsin-C was added to achieve the following micromolar concentrations in the presence of 0, 2.5, 5.0 or 10.0 µg/ml cerulenin: 50, 25, 12.5, 6.2, 3.1, 1.6, 0.8, 0.4, 0.2, 0.1 and 0. Each concentration was performed in quadruplicate. Cells were incubated for 24 hours, washed in PBS, solubilized in 1% SDS, stained with 0.2% crystal violet in 2% ethanol, and read at 490 nm on a Molecular Diagnostics plate reader.

Raji cells = details: cited from earlier work
condensing enzyme = condensing enzyme (Saccharomyces cerevisiae, UniProt P19097); details: report of Morisaki, et. al.; cited from earlier work
[5] = test system: six cell lines listed in Table 3; assay: 14C-acetate incorporation into acyl-glycerides; type: cell-based, human; details: cerulenin 0, 2.5, 5.0 or 10.0 µg/ml; 6 hours
Description: (§3) Measurement of endogenous fatty acid incorporation into acyl-glycerides: For each cell type, 200,000 cells were plated in triplicate for non-polar and polar lipid analysis. Following overnight growth, each well of cells was incubated for 2 hours with 1 µCi ^14C acetate. ^14C-labeled lipids were extracted as above, and dried under N2. For analysis of non-polar lipids, samples were resuspended in 10 ul chloroform and spotted on silica gel N-HR (Brinkmann) and chromatographed in hexane:ethyl ether:acetic acid, 65:25:4 by volume. Cholesterol, palmitic acid, tripalmitin, and cholesterol palmitate (Matreya) were run as controls at 50 µg each. […] 50 µg each of cholesterol, phosphatidyl ethanolamine, lecithin, and lysolecithin (Matreya) were run as controls. ^14C-labeled lipids were detected and quantified using a Bioscan System 2000 imaging scanner with Autochanger 3000. […] Phosphatidylcholine and triglycerides were the predominant acyl-glycerides detected.
(§4) Measurement of endogenous fatty acid incorporation into acyl-glycerides and cholesterol: For each cell type, 200,000 cells were plated in triplicate for non-polar and polar lipid analysis for each drug dose in 24 well plates. […] For the last two hours of cerulenin incubation, 1 µCi of ^14C acetate was added per well. ^14C-labeled lipids were then extracted, chromatographed, and detected as described above. […]

[6] = target: T1, OA-519 fatty acid synthase (Homo sapiens, UniProt P49327); assay: Spectrophotometric fatty acid synthase assay (NADPH oxidation at 340 nm); type: biochemical
T1 construct: endogenous in cells; host or cells: ZR-75-1 breast carcinoma cell line (protein purified from the lysate)
Description: Spectrophotometric fatty acid synthase assay: The fatty acid synthase assay was performed in a total volume of 451 µl with the following components: 18.88 µg of purified OA-519 fatty acid synthase from the ZR-75-1 breast carcinoma cell line as described in Example 2, 25 nanomoles acetyl-CoA, 75 nanomoles NADPH, and 50 µl of 1 molar potassium phosphate, pH 6.6 at 25°C. The substrate malonyl-CoA was added at concentrations of 0.5 and 0.6 micromolar in the presence of 0, 9.9, 148, 198, or 397 micromolar cerulenin. HPLC grade water was added to achieve a final volume of 451 µl for all assays.
The enzyme, NADPH, acetyl-CoA, phosphate, cerulenin, and water were combined, vortexed, and incubated in a Beckman DU 650 spectrophotometer at 37°C. Oxidation of NADPH was monitored at 340 nm without substrate to determine background for 2 min. Malonyl-CoA was then added to the reaction cuvette, mixed, and incubated at 37°C while NADPH oxidation was determined at 10 second intervals at 340 nm in the spectrophotometer for a total of 2 min. All determinations were performed in duplicate.
Results: The spectrophotometric data was plotted according to Dixon (Dixon, M., Biochem. J., 55:170-171, 1953) which graphs inhibitor concentration versus 1/v for each given substrate concentration. […]

H125 lung carcinoma line = assay: Growth inhibition assay without oleic acid, single 24 h time point; type: cell-based; details: no oleic acid, line with 11.6 picomoles per minute enzyme activity
Description: as §1
Growth Inhibition Assay: Anti-proliferative activity of cerulenin for each cell line was determined using the same assay and drug concentrations described in Example 5, except that no oleic acid was added and a single 24 h time point was taken.

viral HIV protease = viral HIV protease (Human immunodeficiency virus type 1 group M subtype B, UniProt P04585); details: cited from earlier work
MCF-7 cells [7] = assay: Clonogenic assay; type: cell-based, human; details: 10 µg/ml; exposure time 24 hours
Description: Clonogenic assay: One million cells were plated in 25 cm sq. flasks. […] Cells were then trypsinized to a single cell suspension and plated in 16 mm dishes at 1000 or 500 cells per dish in triplicate. Following 3 days incubation for ZR-75-1 and MCF-7 cells, and 7 days for SKBR3 cells, colonies were counted and expressed as the percentage of the untreated control.

MCF-7 cells [8] = assay: 14C-acetate incorporation into cholesterol; type: cell-based, human; details: cerulenin 0, 2.5, 5.0 or 10.0 µg/ml; 6 hours
Description: as §3, §4

SKBR3 cells = assay: 14C-acetate incorporation into cholesterol; type: cell-based, human; details: cerulenin 0, 2.5, 5.0 or 10.0 µg/ml; 6 hours
Description: as §3, §4

ZR-75-1 cells [9] = assay: Oleate rescue from cerulenin growth inhibition; type: cell-based, human; details: 10 µg/ml cerulenin for 24 hours; 1.5 mM oleate
Description: ZR-75-1 cells (5,000 per well) were plated in 96 well microtiter plates in medium supplemented with 0, 0.5, 1.0 or 1.5 mM oleate bound to delipidized bovine serum albumin at a molar ration of 4:1. After 18 hours incubation, cerulenin was added at a dose of 10 µg/ml. Cells were stained and assayed as in Example 10 after 24 hours (Figure 17, upper line) or 48 hours (lower line). The middle line of Figure 17 represents cells which were re-fed at 24 hours with medium containing the respective oleate concentration without cerulenin and assayed after a 48 hour total incubation. Error bars represent standard error of the mean.

Dupro-1 = assay: Population doubling assay, viable cell count (trypan blue); type: cell-based; details: Homo sapiens; 48-hour exposure; relative to untreated cultures; read-out: concentration giving 50% inhibition of population doubling
Description: (§5) TSU-pr1 and Dupro-1 cell lines were plated in RPMI-1640 with 10% fetal bovine serum at 3 X 10^5 and 1 X 10^5 cells respectively/T25 flask in a humidified atmosphere of 95% air: 5% CO2. After 24 hours, initial plating density was measured. In addition, media was replaced (control) or cerulenin was added at 2.5-10 µg/ml to duplicate cultures. Forty-eight hours later, cells were trypsinized and viable cells (trypan blue excluding) counted. The number of population doublings was estimated.

TSU-pr1 = assay: as above; type: cell-based; details: Homo sapiens, 48-hour exposure, relative to untreated cultures, read-out: concentration giving 50% inhibition of population doubling
Description: as §5

SW480 = assay: Crystal violet growth inhibition assay, 48 hour exposure; type: cell-based; details: Homo sapiens, read-out: ID50 (the source's name)
Description: as §2

H'27 = assay: as above; type: cell-based; details: Homo sapiens, read-out: ID50 (the source's name)
Description: as §2

ZR-75-1 = assay: as above; type: cell-based; details: Homo sapiens, read-out: ID50 (the source's name)
Description: as §2

[10] = SK-BR-3, 48 h, read-out: ID50 (µg/ml)
[11] = SK-BR-3, 48 hours, dose giving 50% reduction of control absorbance, quadruplicate, read-out: ID50 (the source's name)

T1 sequence (P49327 2-2511 limits assumed): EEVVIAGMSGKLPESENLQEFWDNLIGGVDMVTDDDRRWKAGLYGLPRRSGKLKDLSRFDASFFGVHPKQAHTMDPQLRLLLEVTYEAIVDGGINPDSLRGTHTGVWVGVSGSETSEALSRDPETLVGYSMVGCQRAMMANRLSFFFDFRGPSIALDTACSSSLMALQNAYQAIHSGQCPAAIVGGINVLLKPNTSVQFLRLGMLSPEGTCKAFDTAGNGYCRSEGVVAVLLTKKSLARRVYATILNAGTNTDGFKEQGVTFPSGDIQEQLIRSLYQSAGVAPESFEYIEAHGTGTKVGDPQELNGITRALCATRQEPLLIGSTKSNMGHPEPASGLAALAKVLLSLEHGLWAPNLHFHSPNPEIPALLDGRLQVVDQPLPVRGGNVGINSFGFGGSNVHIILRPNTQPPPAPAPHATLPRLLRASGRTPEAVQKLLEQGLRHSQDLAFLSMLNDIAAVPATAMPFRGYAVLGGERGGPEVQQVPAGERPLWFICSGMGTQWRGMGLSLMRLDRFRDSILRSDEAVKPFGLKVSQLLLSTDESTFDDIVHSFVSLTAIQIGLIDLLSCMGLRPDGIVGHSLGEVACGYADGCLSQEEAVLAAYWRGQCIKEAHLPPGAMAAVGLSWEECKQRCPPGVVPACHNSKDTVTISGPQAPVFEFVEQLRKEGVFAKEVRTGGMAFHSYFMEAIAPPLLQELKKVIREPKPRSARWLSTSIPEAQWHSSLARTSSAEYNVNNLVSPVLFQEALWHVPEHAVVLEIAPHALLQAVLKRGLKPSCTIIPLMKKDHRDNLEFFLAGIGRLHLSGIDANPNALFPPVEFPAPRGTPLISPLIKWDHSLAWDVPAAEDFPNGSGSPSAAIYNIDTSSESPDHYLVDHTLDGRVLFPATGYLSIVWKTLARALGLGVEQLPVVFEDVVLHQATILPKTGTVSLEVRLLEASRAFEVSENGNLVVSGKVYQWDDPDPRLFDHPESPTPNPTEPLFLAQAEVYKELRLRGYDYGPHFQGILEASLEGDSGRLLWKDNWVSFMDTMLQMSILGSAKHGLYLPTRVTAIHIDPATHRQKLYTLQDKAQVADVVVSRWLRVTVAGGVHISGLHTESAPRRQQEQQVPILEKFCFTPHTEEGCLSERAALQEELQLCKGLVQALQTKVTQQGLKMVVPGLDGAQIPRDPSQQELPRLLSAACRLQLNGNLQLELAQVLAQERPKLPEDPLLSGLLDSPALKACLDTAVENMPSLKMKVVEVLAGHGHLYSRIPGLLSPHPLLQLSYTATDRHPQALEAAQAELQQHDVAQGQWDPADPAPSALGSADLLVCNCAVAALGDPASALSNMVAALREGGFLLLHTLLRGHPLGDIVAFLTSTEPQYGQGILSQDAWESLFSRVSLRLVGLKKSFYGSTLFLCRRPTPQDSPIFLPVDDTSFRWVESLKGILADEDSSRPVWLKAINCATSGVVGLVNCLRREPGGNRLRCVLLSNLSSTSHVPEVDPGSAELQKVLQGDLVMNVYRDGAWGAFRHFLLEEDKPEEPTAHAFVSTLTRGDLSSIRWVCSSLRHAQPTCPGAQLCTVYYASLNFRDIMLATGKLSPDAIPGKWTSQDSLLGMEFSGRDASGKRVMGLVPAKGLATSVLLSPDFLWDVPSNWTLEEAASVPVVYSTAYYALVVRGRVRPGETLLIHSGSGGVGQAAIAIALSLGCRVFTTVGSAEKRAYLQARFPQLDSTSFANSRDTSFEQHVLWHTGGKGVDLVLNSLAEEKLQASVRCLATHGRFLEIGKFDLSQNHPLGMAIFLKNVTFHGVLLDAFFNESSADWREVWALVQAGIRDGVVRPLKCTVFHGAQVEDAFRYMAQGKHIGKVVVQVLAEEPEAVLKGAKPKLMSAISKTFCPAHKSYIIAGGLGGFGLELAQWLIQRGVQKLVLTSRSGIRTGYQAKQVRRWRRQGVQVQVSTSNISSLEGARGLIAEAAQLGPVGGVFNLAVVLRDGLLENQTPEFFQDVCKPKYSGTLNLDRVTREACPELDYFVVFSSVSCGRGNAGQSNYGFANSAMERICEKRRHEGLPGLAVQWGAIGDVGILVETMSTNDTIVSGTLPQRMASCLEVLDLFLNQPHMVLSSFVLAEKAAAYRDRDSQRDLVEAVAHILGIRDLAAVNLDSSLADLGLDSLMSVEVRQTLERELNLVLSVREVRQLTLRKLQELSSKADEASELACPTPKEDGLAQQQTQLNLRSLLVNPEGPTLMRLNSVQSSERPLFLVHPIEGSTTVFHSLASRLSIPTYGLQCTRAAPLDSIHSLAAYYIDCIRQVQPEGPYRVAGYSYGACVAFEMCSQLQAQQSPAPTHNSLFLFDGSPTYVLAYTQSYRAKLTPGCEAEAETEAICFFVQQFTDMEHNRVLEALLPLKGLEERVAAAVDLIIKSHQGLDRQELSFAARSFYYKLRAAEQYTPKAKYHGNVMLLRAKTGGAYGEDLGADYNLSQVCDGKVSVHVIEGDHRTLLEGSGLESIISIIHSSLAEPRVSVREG

Nc1nc(N)nc(Nc2ccc([As]3SCC(CO)S3)cc2)n1 (centres unmarked) [melarsoprol]
effect on normal human fibroblasts (normal human fibroblasts): little effect
effect on carcinoma cells (ZR-75-1 cells [1]): anti-proliferative

O=C(O)C(=O)CBr [Bromopyruvate]
IC50 [2, 10]: 52 µg/mL (≈ 311 µM)

CC(C)(COP(=O)(O)OP(=O)(O)OC[C@H]1O[C@@H](n2cnc3c(N)ncnc32)[C@H](O)[C@@H]1OP(=O)(O)O)[C@@H](O)C(=O)NCCC(=O)NCCSCC(=O)O [S-carboxymethyl CoA]
IC50 [2, 11]: 61.4 µg/mL (≈ 74.4 µM)

CCN1C(=O)C=CC1=O [N-ethylmaleimide]
IC50 [2, 10]: 0.9 µg/mL (≈ 7.19 µM)

CCC/C=C/C/C=C/C=C/C=NN=NO [Triacsin C, 1-hydroxy-3-(E, E, E-2', 4', 7' - undecatrienylidine) triazene]
growth inhibition (Vero): inhibit growth
growth inhibition (Hela cells): inhibit growth
IC50 [3]: 8.7 µM
IC50 (ZR-75-1 cells [4]; cerulenin added at a level approximating its ID50): < 1 µM
IC50 (ZR-75-1 cells [4]; triacsin-C alone, read-out: ID50 (the source's name)): ~15 µM
concentration causing growth inhibition (Raji cells): 1.0 µM

CCCCCCCCC(=O)C1OC1C(N)=O (centres unmarked) [Tetrahydrocerulenin]
times less potent than cerulenin (condensing enzyme): 80-150 times

C/C=C/C/C=C/CCC(=O)[C@H]1O[C@H]1C(N)=O [cerulenin, (2S) (3R) 2,3-epoxy-4-oxo-7,10 dodecadienoyl amide]
IC50 [2, 11]: 3.6 µg/mL (≈ 16.1 µM)
incorporation of 14C-acetate into acyl-glycerides [5]: consistently and significantly inhibited in a dose-related manner
Ki ([6]; for the substrate malonyl-CoA, Dixon plot, enzyme purified from ZR-75-1, read-out: apparent Ki): 32 µM
type of inhibition of OA-519 fatty acid synthase activity ([6]; purified OA-519): non-competitive inhibitor
growth inhibition (H125 lung carcinoma line): 48%
effect on growth (normal human fibroblasts; cerulenin 6.25 µg/ml, 0.5 millimolar oleic acid): unaffected
effect on normal human fibroblasts (normal human fibroblasts): little effect
concentration at which inhibition occurs (viral HIV protease): 5 mg/mL
inhibition at 6.25 µg/mL (ZR-75-1 cells [1]; Homo sapiens, ZR-75-1, cerulenin 6.25 µg/ml, by 48 h, 0.5 millimolar oleic acid, read-out: growth inhibited): > 80%
effect on carcinoma cells (ZR-75-1 cells [1]): anti-proliferative
cell kill (MCF-7 cells [7]): greater than three logs of cell kill
cholesterol synthesis (MCF-7 cells [8]): mild inhibition
cholesterol synthesis (SKBR3 cells): stimulation
reversal of growth inhibition by oleate (ZR-75-1 cells [9]): virtually complete reversal of growth inhibition
IC50 (Dupro-1): 3 to 4 µg/mL (≈ 13.4 to 17.9 µM)
IC50 (TSU-pr1): 3 to 4 µg/mL (≈ 13.4 to 17.9 µM)

CCCCCCCCCCCCCCOc1ccc(C(=O)O)o1 [TOFA, 5 (tetradecyloxy)-2-furoic acid]
IC50 [2, 11]: 4.6 µg/mL (≈ 14.2 µM)
IC50 (SW480): 59.8 µg/mL (≈ 184 µM)
IC50 (H'27): 44.7 µg/mL (≈ 138 µM)
IC50 (ZR-75-1): 0.8 µg/mL (≈ 2.47 µM)

CCC/C(=N\OCC)C1=C(O)CC(CC(C)SCC)CC1=O (centres unmarked) [Sethoxydim]
IC50 [2, 10]: 9.5 µg/mL (≈ 29 µM)

NC(=O)CI [Iodoacetamide]
IC50 [2, 10]: 0.3 µg/mL (≈ 1.62 µM)

Cc1cc2c(C(C)C)c(O)c(O)c(C=O)c2c(O)c1-c1c(C)cc2c(C(C)C)c(O)c(O)c(C=O)c2c1O [Gossypol]
IC50 [2, 10]: 3.1 µg/mL (≈ 5.98 µM)
